From US5100879A, “Method of topically cleansing the human body” (K.K. Ueno Seiyaku Oyo Kenkyujo, priority 1987, dated 1992)
Read-outs that look alike come from different tables or passages of the source.

Key:
[1] = test system: HTLV-III; assay: Anti-AIDS virus activity, MT-4 cells infected with HTLV-III, 3 days (Examples 3, 6, 7); format: cell-based; conditions: increasing dose
Description: (§1) To MT-4 cells (30×10^4 /ml) cultured in RPMI-1640 medium containing 10% bovine serum, was inoculated HTLV-III, and the suspension was incubated at 37° C. for 1 hour to cause the adsorption of the virus. The cell:virus ratio was 500:1. The cells were then washed, and cultured with or without various doses of the test substances (same as those of Example 1) at 37° C. under 5% CO2 for 3 days, after which cell growth, viability, and percentage of infected cells were recorded. The infected cells were distinguished from the uninfected cells by an indirect immuno-fluorescence method. Thus, the cultured cells were fixed with cold methanol on a slide glass, reacted with antibody to the HTLV-III-specific antigens, and further with the secondary antibody (having a fluororescent label). The results are shown in FIGS. 9-29, wherein, .gradient., .increment. and .quadrature. show the controls without virus, and show the infection experiments with HTLV-III. The cell growth is indicated in number of cells, the viability (%) in number of viable cells ×100/number of total cells, and the infected cell rate (%) in number of fluorescent-positive cells x 100/number of total cells.
Test substances were assayed for the anti-AIDS virus activity in the same manner as in Example 3 using cell culture. […]
The anti-AIDS virus activity of heparin was evaluated in the same manner as in Example 3. […]

[2] = test system: MT-4 cells; assay: Cytotoxicity, MT-4 cells cultured without virus (Examples 4 and 8); format: cell-based, human
Excerpt: The cell:virus ratio was 500:1. […] The infected cells were distinguished from the uninfected cells by an indirect immuno-fluorescence method. Thus, the cultured cells were fixed with cold methanol on a slide glass, reacted with antibody to the HTLV-III-specific antigens, and further with the secondary antibody (having a fluororescent label). […] The cell growth is indicated in number of cells, the viability (%) in number of viable cells ×100/number of total cells, and the infected cell rate (%) in number of fluorescent-positive cells x 100/number of total cells.

[3] = test system: reverse transciptase of simian sarcoma virus; conditions: Cancer Research, 38, 2401 2407; cited from earlier work
[4] = test system: mice; conditions: cited from earlier work
[5] = test system: HTLV-III; assay: Anti-AIDS activity, infected cell rate of MT-4 cells infected with HTLV-III at the 6th day (Example 9); format: cell-based; conditions: for Infected cell (%): 6th day, control without test substance 100%
Description: as §1
In order to examine the correlation between the anti-AIDS virus activity and the molecular structure (especially, molecular weight and S-content or number of sulfate group in this case) of various test substances including those used in Examples 1-7, the anti-AIDS activities were evaluated for the various naturally occurring polysaccharides, polysaccharides having a sulfate group, mucopolysaccharides, mucopolysaccharide sulfate, and mucopolysaccharide polysulfate. Further, similar experiments were carried out with various other sulfates which were synthetically obtained. The experimental procedures employed are identical to that in the preceding experiments. The cultured MT-4 cells were infected with HTLV-III and the inhibitory effects of various test substances on the infected cell rate (number of fluorescent cell×100/ total cell, %) were determined at the 6th day.

[6] = test system: DNA polymerase of phytohemagglutinin stimulated human lymphocytes; conditions: Cancer Research, 38, 2401 2407; cited from earlier work
[7] = test system: Friend leukemia virus (F-MuLV); assay: Anti-Friend leukemia virus activity, XC-plaque assay, Procedure 1; format: cell-based; conditions: for Number of plaques per dish: control 168
Description: (§2) Anti-FMuLV activity of dextran sulfate (molecular weight: 7000-8000, S-content: 17-20%) was determined by a XC-plaque assay method. BALB3T3 cells were cultured in adhesive form in a 35 mm-dish at 5×10^4 cells/dish (2 ml). After removing the culture medium, a fresh medium with or without indicated concentrations of the test substance (1 ml each) and 0.2 ml of the virus preparation were charged, and the cells were cultured overnight. On the following day, the culture media were replaced with those (2 ml) containing or not containing the above substances, the incubation was continued for three additional days to progress the infection and replication of the virus. After the removal of the medium, the further progression of viral replication was stopped by UV irradiation. To this dish, the suspension of XC-cells (2 ml) was added and cultured for three days and the plaque formation produced by the virus particle induced cell-fusion, was observed.

[8] = test system: disrupted HTLV-III virions as a crude reverse transcriptase; assay: Inhibition of reverse transcriptase activity (HTLV-III), Example 2; format: biochemical; conditions: FIG. 8
[9] = test system: Friend leukemia virus (F-MuLV); assay: Anti-Friend leukemia virus activity, XC-plaque assay, Procedure 2; format: cell-based; conditions: for Number of plaques per dish: control 35
Description: as §2
Procedure 1 was repeated except that after adsorption of the virus in the medium without DS, the non-adsorbed viruses were removed and the culture was carried out in the medium (2 ml) containing or not containing DS.

Heparin
cell growth (number of cells) and viability of MT-4 cells infected with HTLV-III [1]: the number of cells and viability were maintained to that of control | infected cell rate (%) of MT-4 cells infected with HTLV-III, in words [1]: less susceptible to the viral infection | cytotoxicity to MT-4 cells, in words [2]: little cytotoxicity | inhibition of reverse transciptase of simian sarcoma virus in vitro [3]: inhibit | acute toxicity (LD50) ([4]; intravenously): 1,500-2,000 mg/kg | Infected cell (%) ([5]; 10 μg/ml): 41% | Infected cell (%) ([5]; 100 μg/ml): 1% | anti-AIDS virus activity, in words ([5]; Example 9): particularly strong | inhibition of DNA polymerase of phytohemagglutinin stimulated human lymphocytes in vitro [6]: inhibit

dextran sulfate [Dextran sulfate 7,000-8,000]
Inhibition (%) ([7]; Procedure 1, 1 μg/ml): 92% | Number of plaques per dish ([7]; Procedure 1, 1 μg/ml): 14 per dish | Inhibition (%) ([7]; Procedure 1, 5 μg/ml): 93% | Number of plaques per dish ([7]; Procedure 1, 5 μg/ml): 12 per dish | Inhibition (%) ([7]; Procedure 1, 10 μg/ml): 93% | Number of plaques per dish ([7]; Procedure 1, 10 μg/ml): 11 per dish | Inhibition (%) ([7]; Procedure 1, 50 μg/ml): 92% | Number of plaques per dish ([7]; Procedure 1, 50 μg/ml): 13 per dish | Inhibition (%) ([7]; Procedure 1, 100 μg/ml): 96% | Number of plaques per dish ([7]; Procedure 1, 100 μg/ml): 6 per dish | Inhibition (%) ([7]; Procedure 1, 1000 μg/ml): 100% | inhibition of the formation of plaque ([7]; Procedure 1, concentrations of 1-100 μg/ml): ≥ 90% | Viability ([2]; 1 μg/ml, without virus, 0 μg/ml gives 87): 90% | acute toxicity (LD50) ([4]; intravenously): 4,500 mg/kg | acute toxicity (LD50) ([4]; orally): 21,000 mg/kg | Infected cell (%) ([5]; 10 μg/ml): 1% | Infected cell (%) ([5]; 100 μg/ml): 0% | inhibitory effect against the reverse transcriptase derived from HTLV-III [8]: has an inhibitory effect | Inhibition (%) ([9]; Procedure 2, 0.01 μg/ml): 6% | Number of plaques per dish ([9]; Procedure 2, 0.01 μg/ml): 33 per dish | Inhibition (%) ([9]; Procedure 2, 0.1 μg/ml): 45% | Number of plaques per dish ([9]; Procedure 2, 0.1 μg/ml): 19 per dish | Number of plaques per dish ([9]; Procedure 2, 1 μg/ml): 14 per dish | Inhibition (%) ([9]; Procedure 2, 10 μg/ml): 52% | Number of plaques per dish ([9]; Procedure 2, 10 μg/ml): 17 per dish | Inhibition (%) ([9]; Procedure 2, 100 μg/ml): 54% | Number of plaques per dish ([9]; Procedure 2, 100 μg/ml): 16 per dish | Number of plaques per dish ([9]; Procedure 2, 500 μg/ml): 0 per dish
